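1) Cells in 96-well plates. 2) Compound, 48 h, 5 concentrations. 3) Linear interpolation between surrounding doses. 4) Unreached endpoint = highest concentration. At the GI50, growth is halved.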 Activity calls are given as the source filed them. Cut-off read from the data, not from the text of the source: active = GI50 up to about 1.1 µM and inactive = higher.
Legend:
Experiment in all cases: NCI-60 cell line screen, 48 h
[1] = tested on: 786-0
[2] = tested on: CAKI-1
[3] = tested on: CCRF-CEM
[4] = tested on: HCT-116
[5] = tested on: HOP-92
[6] = tested on: HT-29
[7] = tested on: M14
[8] = tested on: NCI-H226
[9] = tested on: NCI/ADR-RES
[10] = tested on: OVCAR-5
[11] = tested on: PC-3
[12] = tested on: RXF 393
[13] = tested on: SK-MEL-28
[14] = tested on: SK-MEL-5
[15] = tested on: SNB-19
[16] = tested on: T47D
[17] = tested on: U-251
[18] = tested on: UACC-257
[19] = tested on: SR

Measured: GI50

Cc1ccc(C2(c3ccc(Cl)cc3)c3ccccc3C3=NCCN32)cc1 (configuration not stated)
inactive: [1] 13.1 µM | [2] 21.5 µM | [3] 4.5 µM | [4] 2.19 µM | [5] 6.04 µM | [6] 1.89 µM | [7] 3.7 µM | [8] 16.3 µM | [9] 10 µM | [10] 12.5 µM | [11] 8.3 µM | [12] 2.31 µM | [13] 14.7 µM | [14] 10.9 µM | [15] 13.7 µM | [16] 15.7 µM | [17] 11.5 µM | [18] 6.55 µM

C=C(COC(=O)C(C)C)[C@H]1Oc2ccc(C(C)=O)cc2[C@@H]1OC(=O)C(C)C
inactive: [1] > 100 µM | [2] > 100 µM | [3] > 100 µM | [4] > 100 µM | [6] > 100 µM | [7] > 100 µM | [8] > 100 µM | [10] > 100 µM | [11] > 100 µM | [12] > 100 µM | [13] > 100 µM | [14] > 100 µM | [15] > 100 µM | [19] > 100 µM | [16] > 100 µM | [17] > 100 µM | [18] > 100 µM

O=C(CN1c2ccccc2Sc2ccccc21)n1cnc2ccccc21
inactive: [1] 52.6 µM | [3] 73.1 µM | [4] > 100 µM | [5] 30.6 µM | [6] 73.6 µM | [7] 59.2 µM | [8] 45 µM | [9] 97.5 µM | [10] 80 µM | [11] 70.6 µM | [12] > 100 µM | [13] > 100 µM | [14] 56.9 µM | [15] > 100 µM | [16] 49.8 µM | [17] 43.5 µM | [18] > 100 µM

CCC1OC2(C)CC(C#N)(C#N)C1(C#N)C(=N)O2 (configuration not stated)
inactive: [1] > 100 µM | [2] > 100 µM | [3] > 100 µM | [4] > 100 µM | [5] > 100 µM | [7] > 100 µM | [10] > 100 µM | [11] > 100 µM | [12] > 100 µM | [13] > 100 µM | [14] > 100 µM | [15] > 100 µM | [16] > 100 µM | [17] > 100 µM | [18] > 100 µM

Source: ChEMBL document CHEMBL1201862, “PubChem BioAssay data set” (2004)
